Columns and labels:
MAT2A = biological target: T1, MAT2A (Homo sapiens, UniProt P31153); assay: MAT2A inhibitory activity, colorimetric phosphate detection (PiColorLock) enzyme assay; format: biochemical; conditions: Test Condition 1 or 2 (not stated which per compound); absorbance at 630 nm
T1 construct: purchased BPS Bioscience (USA) 71401
Description: In vitro assay: Methionine and adenosine triphosphate (ATP) are converted into S-adenosylmethionine (SAM) and inorganic phosphate (pi) via the catalytic action of methionine adenosyltransferase 2A (MAT2A). The produced pi is detected by the PiColorLock™ Phosphate Detection Reagent, which is a colorimetric assay, and the activity of MAT2A can be evaluated according to the amount of pi generated during the enzyme reaction. Each compound was evaluated under Test Condition 1 or 2 as described below.
• Concentration of MAT2A inhibitor: maximum concentration of 50 µM, 5-fold dilution (7 groups in total) • MAT2A concentration: 12 ng/µL • ATP and Met concentration: 100 µM, 80 µM
• Concentration of MAT2A inhibitor: maximum concentration of 1 µM, 3-fold dilution (7 groups in total) • MAT2A concentration: 4 ng/µL • ATP and Met concentration: 300 µM, 150 µM • Reagents: Methionine (catalog number M5308) and ATP (catalog number A2383) were purchased from Sigma-Aldrich (USA). MAT2A (catalog number 71401) was purchased from BPS Bioscience (USA), and PiColorLock™ Phosphate Detection Reagent (catalog number 303-0030) was purchased from Novus (USA).
Assay buffer composition: 50 mM Tris-HCl pH 8.0, 50 mM KCI, 15 mM MgCl2, 0.3 mM EDTA, 0.005 % (w/v) BSA
Experimental procedure: Each compound was diluted 5-fold or 3-fold based on the maximum concentration (5 mM or 1 mM or 0.1 mM) using DMSO. The diluted compounds were diluted 20-fold using assay buffer, and then mixed at a volume ratio of 1:2 with MAT2A (30 ng/µL or 10 ng/µL) diluted with assay buffer and treated for 30 minutes at room temperature. The negative control group is a group untreated with both the MAT2A enzyme and the compound according to an embodiment of the present application, and the positive control group is a group treated only with the MAT2A enzyme and untreated with the compound according to an embodiment of the present application.
In each well of a 384-well plate, 30 µL of the mixed solution and 20 µL of a 1:1 mixed solution of ATP (0.5 mM or 1.5 mM) and Met (0.4 mM or 0.75 mM) were mixed and then treated for 1 hour at room temperature. After the enzyme reaction, 13 µL of a 100:1 mixed solution of PiColorLockTM and Accelerator was treated in each well and reacted for 5 minutes at room temperature. After treating 5 µL of Stabilizer in each well and reacting for 25 minutes at room temperature, the absorbance at 630 nm was measured using SpectraMax M4 (Molecular Devices, USA) to calculate the IC50 value of the compound.
Analysis method: The enzyme activity (%) of each experimental group was calculated as {(average O.D. of compound-treated group - average O.D. of negative control group)/(average O.D. of positive control group - average O.D. of negative control group)} * 100. After preparing a dose-response curve (4-parameter) using the enzyme activity according to the treatment concentration of each compound in GraphPad Prism 9, the 50 % of enzyme inhibitory activity value (IC50) was calculated through non-linear regression analysis. The IC50 results measured for the MAT2A activity inhibitory ability of the compounds according to an embodiment of the present application are shown in Table 2 (+++: more than 1 to 100 nM, ++: more than 100 to 1,000 nM, +: more than 1,000 to 10,000 nM, -: more than 10,000 nM).

[1] = test system: HCT116 (MTAP WT) cell line; assay: Cell proliferation inhibition in wild-type control cells, WST-1 assay; format: cell-based; conditions: Homo sapiens, HCT-116, 120 hours of drug treatment, maximum concentration 10 µM, read-out: HCT116 WT (IC50, cell proliferation inhibited by 50%)
Description: (§1) The HCT116 (MTAP del) cell line, which is a colorectal cancer cell line with deletion of MTAP gene, was treated with a compound according to an embodiment of the present application as a MAT2A inhibitor, and after culturing for 120 hours, the change in the number of cells was measured with a WST-1 assay reagent. The WST-1 assay is an assay that measures the number of cells by measuring the generation of a chromogenic substance called formazan from tetrazolium salts by intracellular mitochondrial dehydrogenase. In addition, as a control group, a wild-type colorectal cancer HCT116 (MTAP WT) cell line containing the MTAP gene was used to perform the experiment in the same manner as the experimental group.
(§2) Cell lines and reagents: HCT116 (MTAP WT (catalog number HD PAR-034), MTAP del (catalog number HD R02-033)) cell lines were purchased from Horizon Discovery (USA), and RPMI1640 medium (catalog number 22400-093), FBS (Fetal Bovine serum, catalog number 16000044), and Penicillin/Streptomycin (catalog number 15140-122) were purchased from GIBCO (USA). WST-1 (catalog number EZ-BULK150) was purchased from Dogen (Korea).
(§3) Experimental procedure: HCT116 (MTAP WT, MTAP del) cell lines were dispensed into a 96-well plate at a concentration of 1,000 cells/well in RPMI1640 culture medium containing 10% FBS and 1% Penicillin/Streptomycin, and allowed to attach for 24 hours. When the cells were attached to the plate, the drug was diluted 4-fold from a maximum concentration of 10 µM and treated on the cells. After 120 hours of drug treatment, 20 µL of WST-1 solution was treated for 2 hours, and absorbance at 450 nm was measured using SpectraMax M4 (Molecular Devices). Data analysis was calculated by taking the DMSO control group value as 100%. For the IC50 value, the concentration at which cell proliferation is inhibited by 50% was calculated through interpolation using a 4-parameter fit of the dose-response curve using the GraphPad Prism 8.4.3 program. The cancer cell proliferation inhibitory ability and selectivity in MTAP-deficient cancer cells of the compounds according to an embodiment of the present application are described in Table 3 (+++: 1 to 100 nM, ++: more than 100 to 1,000 nM, +: more than 1 to 10 µM, -: more than 10 µM).

[2] = test system: HCT116 (MTAP del) cell line; assay: Cell proliferation inhibition in MTAP-deficient cancer cells, WST-1 assay; format: cell-based; conditions: Homo sapiens, HCT-116, 120 hours of drug treatment, maximum concentration 10 µM, read-out: HCT116 MTAP^-/- (IC50, cell proliferation inhibited by 50%)
Description: as §1, §2, §3

T1 sequence (P31153 whole entry): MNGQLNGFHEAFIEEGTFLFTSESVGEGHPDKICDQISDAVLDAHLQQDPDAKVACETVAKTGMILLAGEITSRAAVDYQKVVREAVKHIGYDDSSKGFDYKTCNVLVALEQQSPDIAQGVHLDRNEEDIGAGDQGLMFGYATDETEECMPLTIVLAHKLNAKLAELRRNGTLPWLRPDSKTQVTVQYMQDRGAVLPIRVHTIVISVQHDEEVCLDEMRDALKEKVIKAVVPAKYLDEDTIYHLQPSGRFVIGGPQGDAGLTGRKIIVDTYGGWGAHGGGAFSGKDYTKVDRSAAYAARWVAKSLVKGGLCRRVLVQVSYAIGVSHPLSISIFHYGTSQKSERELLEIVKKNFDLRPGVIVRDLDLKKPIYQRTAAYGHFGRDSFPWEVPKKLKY

| IC50 (MAT2A) | IC50 [1] | IC50 [2] | SMILES |
| --- | --- | --- | --- |
| 100 to 1000 nM | > 10000 nM | 100 to 1000 nM | Cc1ccccc1-n1c(=O)c2nccn2c2ccc(C3CC3)cc21 [Example 16, 7-cyclopropyl-5-(o-tolyl)imidazo[1,2-a]quinoxalin-4(5H)-one] |
| 100 to 1000 nM | > 10000 nM | 100 to 1000 nM | COc1ccc2c(c1)n(-c1ccccc1C)c(=O)c1nccn12 [Example 17, 7-methoxy-5-(o-tolyl)imidazo[1,2-a]quinoxalin-4(5H)-one] |
| 1000 to 10000 nM | > 10000 nM | 1000 to 10000 nM | Cc1ccccc1-n1c(=O)c2nccn2c2ccc(C#N)cc21 [Example 18, 4-oxo-5-(o-tolyl)-4,5-dihydroimidazo[1,2-a]quinoxalin-7-carbonitrile] |
| 1000 to 10000 nM | > 10000 nM | 1000 to 10000 nM | Cc1ccccc1-n1c(=O)c2nccn2c2ccc(OC(F)(F)F)cc21 [Example 19, 5-(o-tolyl)-7-(trifluoromethoxy)imidazo[1,2-a]quinoxalin-4(5H)-one] |
| 1 to 100 nM | > 10000 nM | 1 to 100 nM | Cc1ccccc1-n1c(=O)c2nccn2c2ccc(C(F)F)cc21 [Example 22, 7-(difluoromethyl)-5-(o-tolyl)imidazo[1,2-a]quinoxalin-4(5H)-one] |
| 1 to 100 nM | > 10000 nM | 100 to 1000 nM | O=c1c2nccn2c2ccc(Cl)cc2n1-c1ccccc1Cl [Example 23, 7-chloro-5-(2-chlorophenyl)imidazo[1,2-a]quinoxalin-4(5H)-one] |
| 100 to 1000 nM | > 10000 nM | > 10000 nM | CC(=O)c1ccc2c(c1)n(-c1ccccc1C)c(=O)c1nccn12 [Example 24, 7-acetyl-5-(o-tolyl)imidazo[1,2-a]quinoxalin-4(5H)-one] |
| 1 to 100 nM | 100 to 1000 nM | 1 to 100 nM | Cc1ccccc1-n1c(=O)c2nccn2c2ccc(I)cc21 [Example 25, 7-Iodo-5-(o-tolyl)imidazo[1,2-a]quinoxalin-4(5H)-one] |
| 1 to 100 nM | > 10000 nM | 1 to 100 nM | Cc1ccccc1-n1c(=O)c2nccn2c2ccc(C(F)(F)F)cc21 [Example 26, 5-(o-tolyl)-7-(trifluoromethyl)imidazo[1,2-a]quinoxalin-4(5H)-one] |
| 100 to 1000 nM | > 10000 nM | 100 to 1000 nM | Cc1c(F)cccc1-n1c(=O)c2nccn2c2ccc(C#N)cc21 [Example 27, 5-(3-fluoro-2-methylphenyl)-4-oxo-4,5-dihydroimidazo[1,2-a]quinoxalin-7-carbonitrile] |
| > 10000 nM | > 10000 nM | > 10000 nM | Cc1ccccc1-n1c(=O)c2nccn2c2ccc(OCC(F)(F)F)cc21 [Example 28, 5-(o-tolyl)-7-(2,2,2-trifluoroethoxy)imidazo[1,2-a]quinoxalin-4(5H)-one] |
| > 10000 nM | > 10000 nM | > 10000 nM | CCOc1ccc2c(c1)n(-c1ccccc1C)c(=O)c1nccn12 [Example 30, 7-ethoxy-5-(o-tolyl)imidazo[1,2-a]quinoxalin-4(5H)-one] |
| 1 to 100 nM | 1000 to 10000 nM | 1 to 100 nM | Cc1ccccc1-n1c(=O)c2nccn2c2ccc(Br)cc21 [Example 32, 7-bromo-5-(o-tolyl)imidazo[1,2-a]quinoxalin-4(5H)-one] |
| 1 to 100 nM | 100 to 1000 nM | 1 to 100 nM | Cc1ncccc1-n1c(=O)c2nccn2c2ccc(Cl)cc21 [Example 33, 7-chloro-5-(2-methylpyridin-3-yl)imidazo[1,2-a]quinoxalin-4(5H)-one] |
| 1 to 100 nM | 100 to 1000 nM | 1 to 100 nM | Cc1ncccc1-n1c(=O)c2ncc(C)n2c2ccc(Cl)cc21 [Example 34, 7-chloro-1-methyl-5-(2-methylpyridin-3-yl)imidazo[1,2-a]quinoxalin-4(5H)-one] |
| 100 to 1000 nM | > 10000 nM | 100 to 1000 nM | Cc1ccccc1-n1c(=O)c2nccn2c2ccc(Cl)nc21 [Example 35, 7-chloro-5-(o-tolyl)imidazo[1,2-a]pyrido[2,3-e]pyrazin-4(5H)-one] |
| 100 to 1000 nM | > 10000 nM | 100 to 1000 nM | Cc1ccc2c(n1)n(-c1ccccc1C)c(=O)c1nccn12 [Example 36, 7-methyl-5-(o-tolyl)imidazo[1,2-a]pyrido[2,3-e]pyrazin-4(5H)-one] |
| 100 to 1000 nM | > 10000 nM | 100 to 1000 nM | COc1ccccc1-n1c(=O)c2nccn2c2ccc(Cl)cc21 [Example 37, 7-chloro-5-(2-methoxyphenyl)imidazo[1,2-a]quinoxalin-4(5H)-one] |
| 100 to 1000 nM | > 10000 nM | 1 to 100 nM | O=c1c2nccn2c2ccc(Cl)cc2n1-c1ccccc1Br [Example 38, 5-(2-bromophenyl)-7-chloroimidazo[1,2-a]quinoxalin-4(5H)-one] |
| 100 to 1000 nM | > 10000 nM | 100 to 1000 nM | Cc1cccc(-n2c(=O)c3nccn3c3ccc(Cl)cc32)c1 [Example 39, 7-chloro-5-(m-tolyl)imidazo[1,2-a]quinoxalin-4(5H)-one] |
| 100 to 1000 nM | > 10000 nM | 100 to 1000 nM | O=c1c2nccn2c2ccc(Cl)cc2n1-c1cccc(F)c1 [Example 40, 7-chloro-5-(3-fluorophenyl)imidazo[1,2-a]quinoxalin-4(5H)-one] |
| 1 to 100 nM | 100 to 1000 nM | 1 to 100 nM | Cc1cn2c(n1)c(=O)n(-c1cccnc1C)c1cc(Cl)ccc12 [Example 45, 7-chloro-2-methyl-5-(2-methylpyridin-3-yl)imidazo[1,2-a]quinoxalin-4(5H)-one] |
| 100 to 1000 nM | > 10000 nM | 100 to 1000 nM | Cc1ccccc1-n1c(=O)c2nccn2c2ccc(C(F)F)nc21 [Example 46, 7-(difluoromethyl)-5-(o-tolyl)imidazo[1,2-a]pyrido[2,3-e]pyrazin-4(5H)-one] |
